This is an account of results in patent US20240115416A1, “SEGMENTED EVA INTRAVAGINAL RINGS” (priority 2019, published 2024).

SMILES strings stand for the structures.

The series in a line: Pharmacokinetics after single intravenous bolus of E2 and P in sheep. The format is in vivo. To be noted: Dorset crossbred, plasma, E2 160 μg, P 10 mg, mean; for AUC(0-inf): n = 2; for clearance: n = 2, read-out: CL, total body clearance (converted); for half-life: n = 2, read-out: T1/2, terminal half-life (converted); for Vd: n = 2, read-out: Vz, volume of distribution based on terminal elimination phase. From the text:
Standard noncompartmental PK analysis methods were used.

As to `CC(=O)[C@H]1CC[C@H]2[C@@H]3CCC4=CC(=O)CC[C@]4(C)[C@H]3CC[C@]12C` [P, progesterone], the AUC(0-inf) came out at 20 ng·h/mL, the clearance was 8330 mL/min, the half-life is 2.75 h and the Vd stood at 1980 L.
Taken in the same sequence, the figures for `C[C@]12CC[C@@H]3c4ccc(O)cc4CC[C@H]3[C@@H]1CC[C@@H]2O` [E2, 17β-estradiol] were 1.79 ng·h/mL, 1490 mL/min, 2.22 h and 287 L.

By AUC(0-inf) is commonly meant the area under the concentration-time curve extrapolated to infinity. A low value points to less exposure. The term clearance denotes the volume of plasma or blood freed of the substance per unit of time.
